Data set [1] concerns T47D cells. Briefly: In vitro cytotoxicity against T47D (sulforhodamine B colorimetric test). The note with it: Homo sapiens, 72 h, read-out: IC50 ± S.D. T47D. A general note: Sulforhodamine B stains cellular protein and so reports cell mass.
Protocol: Doxorubicin was set as reference in this assay.
The cytotoxic efficacy of the target compounds against T47D cells was determined, using the SRB colorimetric technique, as previously reported. Briefly, exponentially growing cells were trypsinized, counted and seeded at the appropriate densities (5000 cells/100 μL/ well) into 96-well microtiter plates.
Then, the cells were exposed to the tested compounds at the desired concentrations (0.01, 0.1, 1, 10, and 100 μM) or to 1% dimethyl sulfoxide (DMSO) for 72 h. At the end of the treatment period, the media were removed, and the cells were fixed with 10% trichloroacetic acid at 4 °C for 1 h. Following, the cells were washed with tap water four times and incubated with SRB 0.4% for 30 min. Excess dye was removed by washing repeatedly with 1% (vol/vol) acetic acid.
The protein-bound dye was dissolved in 10 mM Tris base solution for (optical density) OD determination at 510 nm using a Spectra Max plus Microplate Reader (Molecular Devices, CA).
Cell viability was expressed relative to the untreated control cells 2, 3.
In data set [2] the test system is T47D cells. As to the kind of experiment: NCI in vitro single-dose cellular antiproliferative assay, T47D cells. Format: cell-based. The note with it: Homo sapiens; T47D breast cancer cells, single concentration of 10 μM; read-out: GI% (growth inhibition). As for the experimental part:
(§1) The designed isatin derivatives 6a-i, 11a-c and 12a-c were examined for in vitro antitumor activity on NCI panel involving 58 distinct human tumour cell lines covering nine distinct types of cancer, at single concentration of 10 μM (supplementary file). […] Based on the findings, we concluded that none of compounds 6a, 6c, or 11a were able to increase cell inhibition by more than 20%. And by looking at the mean growth inhibition of the other compounds on each cancer, we discovered that, in addition to CNS cancer in compound 11c and leukaemia in compounds 12b and 12c, all the compounds had the strongest mean growth inhibition on breast cancer cell lines.
(§2) The supplementary data included descriptions of every experimental technique.
(§3) NCI-60 cancer cell lines screening
(§4) Primary anticancer assay was performed on a panel of sixty human tumour cell lines derived from nine neoplastic diseases, in accordance with the protocol of the Drug Evaluation Branch, National Cancer Institute, Bethesda, Maryland, USA. Tested compounds were added to the cell culture at a single concentration ([…]) and the cultures were incubated for 48 h. End point determinations were made with a protein binding dye, sulforhodamine B (SRB). Results for each tested compound were reported as the percent of growth of treated cells when compared to untreated control cells. The percentage growth was evaluated spectrophotometrically versus controls not treated with test agents 1. […]

The target of data set [3] is CA IX. The arrangement: method as in PMID 30445264. The note with it: cancer-related CA IX isoform; cited from earlier work.
In the next data set the target is T1, CA I (Homo sapiens, UniProt P00915).
T1 construct: made in house
T1 sequence (P00915 whole entry): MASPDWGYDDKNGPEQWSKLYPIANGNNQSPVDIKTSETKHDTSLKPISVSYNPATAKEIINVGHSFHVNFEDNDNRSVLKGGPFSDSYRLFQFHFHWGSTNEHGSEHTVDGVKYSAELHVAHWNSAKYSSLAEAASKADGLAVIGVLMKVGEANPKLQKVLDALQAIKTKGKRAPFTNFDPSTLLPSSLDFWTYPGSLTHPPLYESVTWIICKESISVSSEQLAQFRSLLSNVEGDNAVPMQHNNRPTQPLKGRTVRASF
As to the kind of experiment: Carbonic anhydrase inhibition, stopped-flow CO2 hydration, CA I. Format: biochemical. As to conditions: stopped flow assay, mean of triplicate assays.

The target of data set [4] is T2, CA IX (Homo sapiens, UniProt Q16790).
T2 construct: made in house
As to the kind of experiment: Carbonic anhydrase inhibition, stopped-flow CO2 hydration, CA IX. The note with it: stopped flow assay, mean of triplicate assays. Format: biochemical.

The target of another data set is CA II (Homo sapiens, UniProt P00918). Briefly: biochemical.
A further data set concerns the target T3, VEGFR-2 (Homo sapiens, UniProt P35968).
T3 construct: purchased BioAssay Systems EKIN-400
As to the kind of experiment: VEGFR-2 inhibition assay (HTRF). Format: biochemical. The note with it: for IC50: mean ± SD of triplicate, read-out: VEGFR-2 IC50 ± S.D. A general note: Time-resolved FRET reads energy transfer from a long-lived donor to a nearby acceptor.

The test system of data set [5] is NCI panel of 58 human tumour cell lines. As to the kind of experiment: NCI in vitro single-dose antiproliferative assay, panel of 58 tumour cell lines. Format: cell-based. The note with it: single concentration of 10 μM, read-out: cell inhibition (mean % growth inhibition, GI). As to the method:
as §1, §2, §3, §4

The subject of data set [6] is T47D cells. Briefly: Annexin V-FITC/PI apoptosis assay. Format: cell-based, human. As to conditions: for Early apoptosis / Late apoptosis: 24 h, annexin V-FITC/PI; for increase of overall apoptosis in comparison to the control: versus untreated control. From the text:
To explore link between growth suppression activity of compounds 11b and 12b with initiation of apoptosis indicated by rising population of sub-G1 in treated T47D cell lines, the Annexin V-FITC/PI double labelling (AV/PI) apoptosis assay was done. The outcomes of the experiment are shown in Figure 4, showing that compounds 11b and 12b caused T47D cell lines to undergo early and late apoptosis. In fact, % of apoptotic cells amplified from 0.41% at early and 0.22% at late apoptosis in T47D cells that had not been treated to 31.0% of early and 12.07% of late apoptosis in T47D cell that had been treated with compound 11b and to 23.5% at early and 9.4% at late apoptosis of T47D cells that had been treated with compound 12b. According to these findings, compounds 11b and 12b increased the overall apoptosis of T47D cells by roughly 19 and 16.2 times, respectively, in comparison to the control.
The supplementary data included descriptions of every experimental technique. […]
μM of compounds 11b and 12b. […]
(§5) and fixed for 12 h. […] Then, the cells
Cell cycle analysis and apoptosis were […]
experiment has been carried out three times.
Annexin V-FITC apoptosis assay […]
washed with cold phosphate-buffer saline (PBS). Cells were then stained with Annexin V-FITC […]
The samples were analyzed using the flow cytometer 8, 9.

Data set [7] deals with T47D cells. As to the kind of experiment: Cell cycle distribution analysis by flow cytometry. Format: cell-based, human. As to conditions: 10 μM, 24 h. As to the method:
DMSO (control) or compounds 11b and 12b were applied to T47D cells, and flow cytometry was used to determine the DNA concentration. Figure 3 presents the findings. […]
μM of compounds 11b and 12b.
as §5
Cell cycle analysis and apoptosis were
experiment has been carried out three times. […]

T3 sequence (P35968 20-1356): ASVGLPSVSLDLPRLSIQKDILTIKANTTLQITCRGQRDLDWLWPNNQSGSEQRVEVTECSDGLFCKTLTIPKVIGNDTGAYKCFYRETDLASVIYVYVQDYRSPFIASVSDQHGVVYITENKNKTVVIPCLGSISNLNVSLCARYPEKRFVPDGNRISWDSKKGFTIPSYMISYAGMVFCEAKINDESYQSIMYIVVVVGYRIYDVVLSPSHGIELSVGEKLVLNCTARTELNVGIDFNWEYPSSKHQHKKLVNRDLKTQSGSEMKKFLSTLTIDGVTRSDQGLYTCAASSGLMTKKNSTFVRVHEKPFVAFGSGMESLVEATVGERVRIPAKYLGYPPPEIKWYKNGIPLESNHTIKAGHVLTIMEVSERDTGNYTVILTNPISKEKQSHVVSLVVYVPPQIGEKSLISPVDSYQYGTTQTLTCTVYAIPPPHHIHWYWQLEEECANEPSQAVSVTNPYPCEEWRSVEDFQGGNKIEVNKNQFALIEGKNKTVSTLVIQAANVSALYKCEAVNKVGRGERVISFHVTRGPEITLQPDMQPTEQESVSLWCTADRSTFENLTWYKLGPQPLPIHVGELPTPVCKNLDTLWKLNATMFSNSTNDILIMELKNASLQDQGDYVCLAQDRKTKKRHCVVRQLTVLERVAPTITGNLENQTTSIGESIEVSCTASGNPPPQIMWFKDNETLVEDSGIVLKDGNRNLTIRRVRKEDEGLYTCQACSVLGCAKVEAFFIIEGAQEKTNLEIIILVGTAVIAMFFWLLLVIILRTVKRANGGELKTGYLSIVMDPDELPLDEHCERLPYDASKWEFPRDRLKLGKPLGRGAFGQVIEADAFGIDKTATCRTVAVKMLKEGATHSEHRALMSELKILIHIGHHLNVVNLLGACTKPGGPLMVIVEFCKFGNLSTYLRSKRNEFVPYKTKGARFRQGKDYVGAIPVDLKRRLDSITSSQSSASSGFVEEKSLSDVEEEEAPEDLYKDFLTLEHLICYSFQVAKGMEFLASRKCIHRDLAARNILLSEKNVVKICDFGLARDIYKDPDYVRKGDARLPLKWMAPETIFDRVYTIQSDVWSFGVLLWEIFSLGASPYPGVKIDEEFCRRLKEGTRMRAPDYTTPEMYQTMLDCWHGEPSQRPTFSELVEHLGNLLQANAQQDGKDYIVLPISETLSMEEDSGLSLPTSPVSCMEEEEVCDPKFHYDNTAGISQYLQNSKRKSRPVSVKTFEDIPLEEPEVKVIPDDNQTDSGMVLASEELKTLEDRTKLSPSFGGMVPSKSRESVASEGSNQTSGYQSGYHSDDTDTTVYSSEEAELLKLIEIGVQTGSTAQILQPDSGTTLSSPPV
Protocol for CA II: Carbonic anhydrase I, II, and IX inhibition studies
The CO2 hydration actions catalyzed by carbonic anhydrase for targeted compounds herein
presented were measured using an Applied Photophysics stopped-flow instrument. The enzymes
are recombinant proteins that have been created in a lab. Following the initial rates of the CA-
catalyzed CO2 hydration reaction for a period of 10-100 s, phenol red (at a concentration of 0.2
mM) was used as an indicator, working at an absorbance maximum of 557 nm, with 20 mM
Hepes (pH 7.5) as a buffer, and 20 mM Na2SO4 (to maintain constant the ionic strength). The
CO2 concentrations used to determine the kinetic parameters and inhibition constants ranged
from 1.7 to 17 mM. At least six traces of the first 5-10% of the reaction were utilized to
determine the beginning velocity for each inhibitor. In the same way, the uncatalyzed rates were calculated and deducted from the total measured rates. Stock inhibitor solutions (0.1 mM) were
produced in distilled-deionized water, followed by dilutions with the assay buffer up to 0.01 nM.
Prior to the experiment, the inhibitor and enzyme solutions were preincubated together for 15
minutes at room temperature to allow for the development of the E-I complex. The inhibition
constants were calculated using non-linear least-squares methods using the ChengPrusoff
equation in PRISM 3. They reflect the average of at least three individual measurements 6, 7.
Protocol for VEGFR-2: HTRF (homogeneous time-resolved fluorescence) assay method was used to conduct inhibitory action of all newly synthesized compounds against VEGFR-2. VEGFR-2 kinase (BioAssay Systems - Kinase Assay Kit, EKIN-400) and its substrate were incubated for 5 min in a buffer solution with newly synthesized compounds/Sorafnib to initiate the enzymatic reaction, then ATP was added to the reaction mixture. Hold under 30 min at room temperature. The reaction was stopped by adding

For orientation: IC50 means the midpoint of a concentration-inhibition curve. Regarding `COc1cccc2c1C(=O)c1c(O)c3c(c(O)c1C2=O)C[C@@](O)(C(=O)CO)C[C@@H]3O[C@H]1C[C@H](N)[C@H](O)[C@H](C)O1` [Doxorubicin, reference compound], the concentration for half-maximal inhibition (IC50) in the data set on T47D cells [1] worked out at 2.26 ± 0.1 µM.

A word on the melting point: it is the temperature, or range, at which the solid turns liquid. Compound `COc1ccc(/C(C)=N/N=C2/C(=O)Nc3ccc(F)cc32)cc1S(N)(=O)=O` [Compound 6b] came in with a melting point of 262 to 264 °C.

Usually inhibition stands for how much of the control response was suppressed. Compound `COc1ccc(/C(C)=N/N=C2/C(=O)Nc3ccc(OC(F)(F)F)cc32)cc1S(N)(=O)=O` [Compound 6i] returned a melting point of 270 to 272 °C. For the same compound, the half-maximal inhibitory concentration (IC50) in the data set with T47D cells [1] was 24.1 ± 1.08 µM. Also, the inhibition at 10 µM with T47D cells [2] turned out to be 32%.

`COc1ccc2c(c1)/C(=N\N=C(/C)c1ccc(OC)c(S(N)(=O)=O)c1)C(=O)N2` [Compound 6h] displayed a melting point of 264 to 266 °C.

One may read the Ki as a dissociation constant, usually derived from enzyme kinetics or from competition with a known ligand. Consider `CN1C(=O)/C(=N\c2ccc(NC(=O)Nc3ccc(S(N)(=O)=O)cc3)cc2)c2cc(Cl)ccc21` [compound II], for which the inhibitory constant (Ki) at CA IX [3] was 0.0052 µM.

With `COc1ccc(/C(C)=N/N=C2/C(=O)N(Cc3ccccc3)c3ccccc32)cc1S(N)(=O)=O` [Compound 12a], the melting point is 235 to 237 °C. Also, the IC50 with T47D cells [1] was 11.6 ± 0.52 µM. Further, the inhibition at 10 µM with T47D cells [2] was found to be 57%.

As for `COc1ccc(/C(C)=N/N=C2/C(=O)N(C)c3ccc(Br)cc32)cc1S(N)(=O)=O` [Compound 11c], the melting point fell in the range of 263 to 265 °C. The inhibition constant Ki on CA I was over 100 µM. The IC50 in the data set with T47D cells [1] is 10.4 ± 0.47 µM. The Ki at CA IX [4] is over 100 µM. This compound had a Ki at CA II of over 100 µM. Besides, the inhibition at 10 µM with T47D cells [2] turned out to be 52%. Further, on VEGFR-2, 10 µM produced 92% inhibition and the 50% inhibitory concentration (IC50) turned out to be 0.0301 ± 0.00031 µM.

Consider `COc1ccc(/C(C)=N/N=C2/C(=O)N(C)c3ccccc32)cc1S(N)(=O)=O` [Compound 11a], for which, in data set [5], the inhibition at 10 µM is at most 20%.

Compound `COc1ccc(/C(C)=N/N=C2/C(=O)N(Cc3ccccc3)c3ccc(Cl)cc32)cc1S(N)(=O)=O` [Compound 12b] yielded a melting point of 245 to 247 °C. At CA I, this compound had a Ki of over 100 µM. Also, the IC50 in the data set on T47D cells [1] worked out at 3.59 ± 0.16 µM. Besides, the Ki on CA IX [4] is over 100 µM. On CA II, the Ki was over 100 µM. In the data set on T47D cells [6], the Early apoptosis was 23.5%, the Late apoptosis is given as 9.4% and the “increase of overall apoptosis in comparison to the control” value is given as about 16.2 times. The inhibition at 10 µM in the data set with T47D cells [2] came to 28%. Besides, at VEGFR-2, 10 µM produced 97.2% inhibition and the IC50 was found to be 0.0231 ± 0.00041 µM. Also, in the data set with T47D cells [7], the “%S” value came out at 41.05% and the “%Sub-G1” value stood at 39.15%.

Compound `COc1ccc(/C(C)=N/N=C2/C(=O)N(C)c3ccc(Cl)cc32)cc1S(N)(=O)=O` [Compound 11b] yielded a melting point of 248 to 250 °C. On CA I, this compound returned a Ki of over 100 µM. The IC50 in the data set on T47D cells [1] worked out at 1.83 ± 0.08 µM. The Ki on CA IX [4] was over 100 µM. This compound returned a Ki at CA II of over 100 µM. In addition, in the data set on T47D cells [6], the Early apoptosis was found to be 31.0%, the Late apoptosis is recorded as 12.07% and the “increase of overall apoptosis in comparison to the control” value is listed as “roughly 19 times”. The inhibition at 10 µM in the data set with T47D cells [2] turned out to be 55%. Further, at VEGFR-2, testing at 10 µM gave an inhibition of 72.7% and the concentration for half-maximal inhibition (IC50) came to 0.0634 ± 0.00072 µM. Moreover, in the data set on T47D cells [7], the “%G0/G1” value worked out at 68.42% and the “%Sub-G1” value worked out at 45.88%.

For the compound `COc1ccc(/C(C)=N/N=C2/C(=O)Nc3ccc(Cl)cc32)cc1S(N)(=O)=O` [Compound 6d], the melting point was in the range of 268 to 270 °C.

In turn, `COc1ccc(/C(C)=N/N=C2/C(=O)Nc3c(Cl)cccc32)cc1S(N)(=O)=O` [Compound 6e] registered a melting point of 278 to 280 °C.

Regarding `COc1ccc(/C(C)=N/N=C2/C(=O)Nc3c(F)cccc32)cc1S(N)(=O)=O` [Compound 6c], the melting point lay within 266 to 268 °C. In [5], the inhibition at 10 µM was at most 20%.

Take `COc1ccc(/C(C)=N/N=C2/C(=O)Nc3cc(Br)ccc32)cc1S(N)(=O)=O` [Compound 6g]: the melting point lay in the range of 276 to 278 °C.

Take `COc1ccc(/C(C)=N/N=C2/C(=O)N(Cc3ccccc3)c3ccc(Br)cc32)cc1S(N)(=O)=O` [Compound 12c]: the melting point was 260 to 262 °C. The IC50 in the data set on T47D cells [1] was determined as 16.5 ± 0.74 µM. In the data set with T47D cells [2], the inhibition at 10 µM turned out to be 39%.

For `COc1ccc(/C(C)=N/N=C2/C(=O)Nc3ccc(Br)cc32)cc1S(N)(=O)=O` [Compound 6f], the melting point fell in the range of 274 to 276 °C. Moreover, the inhibition constant (Ki) on CA I was over 100 µM. Besides, the half-inhibitory concentration (IC50) in the data set with T47D cells [1] stood at 5.45 ± 0.24 µM. The Ki at CA IX [4] was over 100 µM. Also, the Ki at CA II was over 100 µM. Besides, in the data set with T47D cells [2], the inhibition at 10 µM was 54%. In addition, on VEGFR-2, the inhibition at 10 µM turned out to be 86.8% and the 50% inhibitory concentration (IC50) turned out to be 0.0567 ± 0.00072 µM.

On to `COc1ccc(/C(C)=N/N=C2/C(=O)Nc3ccccc32)cc1S(N)(=O)=O` [Compound 6a], for which the melting point is 250 to 252 °C. Also, the inhibition at 10 µM in data set [5] is at most 20%.
